According to US10363239B2, “Method for inhibiting growth of cancer cells” (Pain Therapeutics, Inc., priority 2013, dated 2019):
Like-named read-outs stand apart in the source and are kept apart here.

Legend:
[1] = system: non-small cell lung cancer cell lines; experiment: Glucose utilization; format: cell-based, human; settings: data not shown
Description: (§1) To determine the effect of Compound C0105 on glucose utilization, the cancer and primary normal cells were plated extremely thinly (10%). Once cells attached, Compound C0105 was added at 0.1, 0.5, 1 or 5 nM in the medium twice daily (6 hours apart) for 4 days. The cells were serum-deprived (glucose deprived) for 2 hours. Cells were then rinsed with 1 ml PBS and glucose uptake was assessed by contacting the cells with [^3H]glucose (0.01 uCi/l ml) in Kreb's Ringer for 2 hours. Cells were then rinsed with 1 ml PBS 3 times, scraped off and their glucose content counted by liquid scintillation spectrophotometry.
. Primary lung fibroblast cells were used as control, non-cancerous cells to illustrate the difference in effects observed (FIG. 1C, FIGS. 1H-1I).

[2] = system: mu opiate receptor (MOR); experiment: MOR agonist activity using [35S]GTPγS binding assay in striatal membranes; format: biochemical
Procedure, shortened: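 Striatal membranes (200 μg) were preincubated 5 min at 30 °C in HEPES pH 7.5 with 100 mM NaCl, 1 mM MgCl2 and 0.5 nM [35S]GTPγS, then 5 min more with 0.1–10 μM compound. Gαo was immunoprecipitated and bound radioactivity counted by scintillation.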

[3] = biological target: FLNA pentapeptide of SEQ ID NO: 1 (Bn-VAKGL) (Homo sapiens, UniProt P21333); experiment: FITC-NLX-based FLNA screening assay (inhibition of FITC-naloxone binding to Bn-VAKGL on streptavidin plates); settings: 10 nM FITC-NLX
[4] = system: melanoma cells (A2058); experiment: [3H]glucose uptake; format: cell-based, human; settings: C0105 0.1-5 nM, other compounds 1 and 5 nM, twice daily for 4 days
Description: as §1, with “FIG. 1A through FIG. 1M illustrate the effects of various FLNA-binding compounds on glucose uptake in glioblastoma, melanoma, breast and pancreatic cancer cell lines, along with appropriate non-cancerous primary cell controls. Cells were grown in the absence or presence of 0.1-5 nM indicated compounds for 4 days. Following brief washes with PBS, cells were serum-deprived for 4 hours and then incubated in oxygenated Kreb's Ringer containing 0.1 μCi [^3H]glucose for 2 hours under constant oxygenation. The reaction was terminated by removal of the incubation medium, and cells were washed and scraped off to determine the amounts of [^3H]glucose in cells by scintillation spectrometry. […] N=5-6. […] . […] . To” for “To”
(§2) Both glioblastoma and melanoma cells were plated extremely thinly. Once cells attached, Compound C0105 was added at 0.1, 0.5, 1 and 5 nM, whereas the other compounds were present at 1 and 5 nM in the medium twice daily (6 hours apart) for 4 days. The cells were serum-deprived (glucose deprived) for 2 hours. Cells were then rinsed with 1 ml PBS and glucose uptake was assessed by contacting the cells with [3H]glucose (0.01 uCi/l ml) of Kreb's Ringer for 2 hours. Cells were then rinsed with 1 ml PBS 3 times, scraped off and their glucose contents counted by liquid scintillation spectrophotometry.

[5] = system: primary lung fibroblasts; experiment: [3H]glucose uptake; format: cell-based, human; settings: C0105 0.1-5 nM, other compounds 1 or 5 nM; 4 days
Description: as §1, with “FIG. 1A through FIG. 1M illustrate the effects of various FLNA-binding compounds on glucose uptake in glioblastoma, melanoma, breast and pancreatic cancer cell lines, along with appropriate non-cancerous primary cell controls. Cells were grown in the absence or presence of 0.1-5 nM indicated compounds for 4 days. Following brief washes with PBS, cells were serum-deprived for 4 hours and then incubated in oxygenated Kreb's Ringer containing 0.1 μCi [^3H]glucose for 2 hours under constant oxygenation. The reaction was terminated by removal of the incubation medium, and cells were washed and scraped off to determine the amounts of [^3H]glucose in cells by scintillation spectrometry. […] N=5-6. […] . […] . To” for “To”
as §2

[6] = system: glioblastoma cells (U-87 MG); experiment: [3H]glucose uptake; format: cell-based, human; settings: C0105 0.1-5 nM, other compounds 1 and 5 nM, twice daily for 4 days
Description: as §1, with “FIG. 1A through FIG. 1M illustrate the effects of various FLNA-binding compounds on glucose uptake in glioblastoma, melanoma, breast and pancreatic cancer cell lines, along with appropriate non-cancerous primary cell controls. Cells were grown in the absence or presence of 0.1-5 nM indicated compounds for 4 days. Following brief washes with PBS, cells were serum-deprived for 4 hours and then incubated in oxygenated Kreb's Ringer containing 0.1 μCi [^3H]glucose for 2 hours under constant oxygenation. The reaction was terminated by removal of the incubation medium, and cells were washed and scraped off to determine the amounts of [^3H]glucose in cells by scintillation spectrometry. […] N=5-6. […] . […] . To” for “To”
as §2

[7] = Series C-2, 0.1 μM compound, relative to DAMGO
[8] = Series C-2, 0.1 μM compound, [35S]GTPγS binding to Gαo, striatal membranes
[9] = Series C-2, 1 μM compound + 1 μM β-FNA
[10] = Series C-2, 1 μM compound + β-FNA, relative to DAMGO + BFNA
[11] = Series C-2, 1 μM compound, relative to DAMGO
[12] = Series C-2, 1 μM compound, [35S]GTPγS binding to Gαo, striatal membranes
[13] = FLNA-binding compound 0.01 μM, read-out: Percent Binding Inhibition
[14] = FLNA-binding compound 0.1 μM, read-out: Percent Binding Inhibition
[15] = FLNA-binding compound 1 μM, read-out: Percent Binding Inhibition
[16] = Series B, 0.1 μM compound, relative to DAMGO
[17] = Series B, 0.1 μM compound, [35S]GTPγS binding to Gαo, striatal membranes
[18] = Series B, 1 μM compound + 1 μM β-FNA
[19] = Series B, 1 μM compound + β-FNA, relative to DAMGO + BFNA
[20] = Series B, 1 μM compound, relative to DAMGO
[21] = Series B, 1 μM compound, [35S]GTPγS binding to Gαo, striatal membranes
[22] = read-out: Percent Binding Inhibition, FLNA-binding compound 0.01 μM
[23] = read-out: Percent Binding Inhibition, FLNA-binding compound 0.1 μM
[24] = read-out: Percent Binding Inhibition, FLNA-binding compound 1 μM
[25] = Series C-1, 0.1 μM compound, relative to DAMGO
[26] = Series C-1, 0.1 μM compound, [35S]GTPγS binding to Gαo, striatal membranes
[27] = Series C-1, 1 μM compound + 1 μM β-FNA
[28] = Series C-1, 1 μM compound + β-FNA, relative to DAMGO + BFNA
[29] = Series C-1, 1 μM compound, relative to DAMGO
[30] = Series C-1, 1 μM compound, [35S]GTPγS binding to Gαo, striatal membranes

Row | Structure (SMILES) | Glucose utilization [1] | % DAMGO (0.1 μM) [2, 7] [%] | MOR agonist activity, percent [35S]GTPγS binding at the stated compound concentration [2, 8] [%] | MOR agonist activity, percent [35S]GTPγS binding at the stated compound concentration [2, 9] [%] | % DAMGO + BFNA [2, 10] [%] | % DAMGO (1 μM) [2, 11] [%] | MOR agonist activity, percent [35S]GTPγS binding at the stated compound concentration [2, 12] [%] | inhibition at 0.01 µM [3, 13] [%] | inhibition at 0.1 µM [3, 14] [%] | inhibition at 1 µM [3, 15] [%] | Glucose utilization [4] | Glucose uptake / glucose content [5] | Glucose utilization [6] | % DAMGO (0.1 μM) [2, 16] [%] | MOR agonist activity, percent [35S]GTPγS binding at the stated compound concentration [2, 17] [%] | MOR agonist activity, percent [35S]GTPγS binding at the stated compound concentration [2, 18] [%] | % DAMGO + BFNA [2, 19] [%] | inhibition at 0.01 µM [3, 22] [%] | inhibition at 0.1 µM [3, 23] [%] | inhibition at 1 µM [3, 24] [%] | further results
1 | Cc1ccc(S(=O)(=O)N2CCOC23CCN(CC2CC2)CC3)cc1 [Compound C0134M] | decreased the elevated glucose utilization | 94.6 | 158.5 | 46.6 | 98.1 | 93.3 | 207.3 | 55.7 | 60.5 | 61.9 | decreased the elevated glucose utilization | no significant inhibition in glucose content | decreased the elevated glucose utilization |  |  |  |  |  |  |  | MOR agonist activity, FLNA-Binding Compound as Agonist 0.1 μM (preliminary study) ([2]; 0.1 μM, average of two runs): 150.7%; MOR agonist activity, FLNA-Binding Compound as Agonist 1 μM + βNFA (preliminary study) ([2]; 1 μM + βNFA, average of two runs): 53.2%; MOR agonist activity, FLNA-Binding Compound as Agonist 1 μM (preliminary study) ([2]; 1 μM, average of two runs): 224.0%
2 | CC1CCC(C(C)C)C(OCC(CN2CC(C)OC(C)C2)NCc2ccccc2)C1 (stereo not shown) [Compound A0033] | decreased the elevated glucose utilization |  |  |  |  |  |  | 46.4 | 51.8 | 56.5 | decreased the elevated glucose utilization | no significant inhibition in glucose content | decreased the elevated glucose utilization |  |  |  |  |  |  |  | MOR agonist activity ([35S]GTPγS binding), FLNA-Binding Compound as Agonist 0.1 μM ([2]; 0.1 μM compound): 155.8%; % DAMGO (0.1 μM) ([2]; 0.1 μM compound relative to DAMGO): 79.4%; MOR agonist activity ([35S]GTPγS binding), FLNA-Binding Compound as Agonist 1 μM ([2]; 1 μM compound): 254.6%; MOR agonist activity ([35S]GTPγS binding), FLNA-Binding Compound as Agonist 1 μM + BFNA ([2]; 1 μM compound + 1 μM β-funaltrexamine): 118.2%; % DAMGO + BFNA ([2]; 1 μM compound + BFNA relative to DAMGO + BFNA): 159.9%; % DAMGO (1 μM) ([2]; 1 μM compound relative to DAMGO): 92.2%
3 | O=C1CNC2(CCN(CC3CC3)CC2)N1Cc1ccccc1 [Compound C0124M] | decreased the elevated glucose utilization |  |  |  |  |  |  | 47.7 | 52.2 | 58.7 | decreased the elevated glucose utilization | no significant inhibition in glucose content | decreased the elevated glucose utilization |  |  |  |  |  |  |  | 
4 | COc1c2c(cc3c1C(CC(=O)Cc1ccccc1F)[N+](C)(C)CC3)OCO2 (stereo not shown) [Compound B0055] | decreased the elevated glucose utilization |  |  |  |  |  |  |  |  |  | decreased the elevated glucose utilization | no significant inhibition in glucose content | decreased the elevated glucose utilization | 91.8 | 162.1 | 117.5 | 446.8 |  |  |  | % DAMGO (1 μM) [2, 20]: 133.1%; MOR agonist activity, percent [35S]GTPγS binding at the stated compound concentration [2, 21]: 338.5%
5 | CC(=O)N1CCSC12CCN(S(=O)(=O)c1ccc([N+](=O)[O-])cc1)CC2 [Compound C0050] |  | 76.1 | 110.3 | 59.0 | 134.1 | 54.8 | 127.6 | 26.7 | 34.5 | 36.4 |  |  |  |  |  |  |  |  |  |  | 
6 | CC(=O)c1ccc(S(=O)(=O)N2C(Cc3c[nH]cn3)C(=O)NC23CCNCC3)cc1 (stereo not shown) [Compound C0119M] |  | 71.9 | 105.7 | 35.1 | 89.3 | 83.0 | 167.8 |  |  |  |  |  |  |  |  |  |  | 41.6 | 55.5 | 60 | 
7 | COc1cccc(CC(=O)CC2c3c(cc4c(c3OC)OCO4)CC[N+]2(C)C)c1OC (stereo not shown) [Compound B0038] |  |  |  |  |  |  |  |  |  |  |  |  |  | 94.2 | 147.5 | 117.1 | 359.2 | 41.2 | 50.1 | 57 | % DAMGO (1 μM) [2, 20]: 88.7%; MOR agonist activity, percent [35S]GTPγS binding at the stated compound concentration [2, 21]: 205.3%
8 | COc1ccc(S(=O)(=O)N2CCC3(CC2)OCCN3S(=O)(=O)c2ccc(OC)cc2)cc1 [Compound 7866] |  |  |  |  |  |  |  | 38.5 | 47.9 | 53.4 |  |  |  |  |  |  |  |  |  |  | % DAMGO (0.1 μM) [2, 25]: 79.3%; Concentration of FLNA-Binding Compound as Agonist 0.1 μM [2, 26]: 152.3%; Concentration of FLNA-Binding Compound as Agonist 1 μM + BFNA [2, 27]: 62.4%; % DAMGO + BFNA [2, 28]: 129.5%; % DAMGO (1 μM) [2, 29]: 94.8%; Concentration of FLNA-Binding Compound as Agonist 1 μM [2, 30]: 308.2%
9 | O=S(=O)(c1ccc(F)cc1)N1CCC2(CC1)OCCN2S(=O)(=O)c1ccc(F)cc1 [Compound C0029] |  |  |  |  |  |  |  |  |  |  |  |  |  |  |  |  |  | 38.6 | 43.2 | 50.5 | % DAMGO (0.1 μM) [2, 25]: 91.2%; Concentration of FLNA-Binding Compound as Agonist 0.1 μM [2, 26]: 175.4%; Concentration of FLNA-Binding Compound as Agonist 1 μM + BFNA [2, 27]: 16.6%; % DAMGO + BFNA [2, 28]: 37.8%; % DAMGO (1 μM) [2, 29]: 113.1%; Concentration of FLNA-Binding Compound as Agonist 1 μM [2, 30]: 308.8%
10 | COc1cc(CC(=O)CC2c3c(cc4c(c3OC)OCO4)CC[N+]2(C)C)cc(OC)c1OC (stereo not shown) [Compound B0008] |  |  |  |  |  |  |  |  |  |  |  |  |  | 84.0 | 148.3 | 46.0 | 70.0 | 35.5 | 40.3 | 52.8 | % DAMGO (1 μM) [2, 20]: 101.9%; MOR agonist activity, percent [35S]GTPγS binding at the stated compound concentration [2, 21]: 264.1%
